Patent US20220030866A1, “CONJUGATES OF AUXIN ANALOGS” (The State of Israel, Ministry of Agriculture & Rural …, priority 2019, published 2022)
Marks after values point to notes of the source that are not given here.

Experiments:
Format in all cases: in vivo
[1] = 4-CPA levels in Eucalyptus grandis cuttings by LC-MS (translocation, release from conjugates)
Procedure: E. grandis cuttings were harvested at time 0, 1, 6 and 24 hours after the indicated treatments. The cutting foliage and basal ends (approximately 2-3 cm of the base) were harvested separately using a sharp pruning shear, rinsed well under a tap water stream, wiped with a paper towel and frozen in liquid nitrogen. Then, each sample was grinded well while still frozen, using an IKA lab mill. For the analysis, 3-6 technical replicates, weight 190-240 mg, were taken from each sample into fresh 2 ml Eppendorf™ tubes. Auxins were extracted in 1 ml of cold 79% isopropanol, 20% methanol and 1% acetic acid solution containing 20 ng of […] IBA and IAA as internal standards. The tubes were vortexed for 1 hr at 4° C. and then centrifuged at 14,000 RPM for 15 minutes. The supernatants were transferred to fresh 2 ml Eppendorf™ tubes. Two more extraction cycles were performed using 0.5 ml of extraction solvent without the internal standards. The tubes containing the collected supernatants were placed in a SpeedVac™ centrifuge for solvent evaporation under room temperature. The pellets were dissolved in pre-chilled 200 μl of 50% methanol, centrifuged, and the supernatant was filtered through […] PDFV syringe filters 13 mm into fresh 2 ml tubes. The ready extractions were kept under −20° C. till analyzed.
LC-MS analyses were conducted using UPLC-Triple Quadrupole-MS device (Waters Xevo TQ MS). Separation was performed on Waters Acquity™ UPLC BEH C18 1.7 μm 2.1×100 mm column with a VanGuard™ precolumn (BEH C18 1.7 μm 2.1×5 mm). Chromatographic and MS parameters were as follows: the mobile phase consisted of water (phase A) and acetonitrile (phase B), both containing 0.1% formic acid in the gradient elution mode. The solvent gradient program was as follows: […]
The flow rate was 0.3 ml/minute, and the column temperature was kept at 35° C. The analyses were performed using the ESI source in negative ion mode with the following settings: capillary voltage 3.1 kV, cone voltage 30 V, desolvation temperature 400° C., desolvation gas flow 565 liters/hour, source temperature 140° C. Quantitation was performed using MRM acquisition by monitoring the 185/127, 185/141, RT=5.77, dwell time of 161 msec for each transition. Calibration curve was used to calculate the concentration of 4-CPA. Acquisition of LC-MS data was performed under MassLynx™ V4.1 software (Waters).
In order to determine whether trend observed in Arabidopsis occurs also in eucalyptus cuttings, the 4-CPA translocation directionality was first examined by treating cuttings with 4-CPA (100 μM) either by submergence of the cutting base or by spraying the leaves. At several time points (i.e. 0, 1, 6 and 24 hours), the cutting base (bottom 2 cm) and the leaves were separately extracted (with isopropanol/methanol/acetic acid solution) and 4-CPA levels were determined by HPLC-MS/MS.
In order to evaluate the rate of conjugates hydrolysis, 4-CPA levels were monitored following treatment with Compounds 1s and 1t. Cuttings were treated with IBA alone (by submerging the cutting base), or with IBA and Compound 1s or it by submerging the cutting base and by spraying the leaves with Compound 1s or 1t. Cutting bases (bottom 2 cm) and leaves were separately extracted 6, 24 and 48 hours after treatment and hormones levels were determined by HPLC-MS/MS.

[2] = tested on: avocado rootstock cuttings; test: rooting of avocado rootstock cuttings; settings: vc51 rootstock, IBA with compound
In short: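 Green cuttings of avocado rootstock (including hard-to-root VC801) were treated with auxin conjugates in the presence of IBA and scored for rooting.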

[3] = tested on: Pinus halepensis cuttings; test: rooting and root development in pine cuttings; settings: 400 ppm IBA potassium salt + 5 ppm conjugate, 4 hours dip; 12 weeks
Procedure: The effects of exemplary D-amino acid conjugates of 4-CPA (Compounds to and Is) on rooting in Pinus halepensis cuttings were compared with those of 2-DP-glycine methyl ester conjugate (2-DP-Gly). Rooting mature pine cuttings (i.e., cuttings that are taken from trees more than 4 years old) is very difficult.
Apical cuttings were taken from 7-year-old trees, stored for 4 weeks at 4° C., and treated by dipping the cutting bases for 4 hours in the following solution: 400 ppm IBA potassium salt+5 ppm tested conjugate+0.1% Amistar™ fungicide (250 grams/liter azoxystrobin). The cuttings were evaluated after 12 weeks.

[4] = 100 μM 4-CPA applied to the cutting base

Row | SMILES | 4-CPA level locally (leaves) and in the cutting base ([1]; 100 μM 4-CPA applied to leaves by spraying) | 4-CPA level in leaves [1, 4] | 4-CPA level in the cutting base (local) [1, 4] | time at which 4-CPA levels peaked following application to the leaves ([1]; 100 μM 4-CPA sprayed on leaves) [h] | 4-CPA levels throughout the measurements ([1]; treatment with free 4-CPA or with conjugate) | roots per cutting of green avocado branches compared with etiolated branches treated with IBA, in words [2] | rooting success rate of green avocado branches, in words ([2]; compared with IBA alone) | Degree of root development Medium (%) [3] [%] | Degree of root development Weak (%) [3] [%] | Degree of root development Well-developed (%) [3] | Rooting rate (%) [3] [%]
1 | O=C(O)COc1ccc(Cl)cc1 [Compound 4-CPA, 4-chloro-phenoxyacetic acid, reference compound] | about 150 ng/gram | less than 10 ng/gram | about 275 ng/gram | 6 | 250-300 ng/gram |  |  |  |  |  | 
2 | COC(=O)[C@@H](Cc1c[nH]c2ccccc12)NC(=O)COc1ccc(Cl)cc1 [Compound 1s, 4-CPA-D-Trp] |  |  |  |  |  | considerably more roots per cutting | considerably enhanced the rooting success rate | 0 | 6.2 | 81.3* % | 92.9
